Reference: PMC4235314 (Scientific Reports, 2014)

How the values were obtained:
[1] = molecular target: T1, LmrR (Lactococcus cremoris, UniProt A2RI36); assay: SPR (Biacore […], LmrR on NTA chip), kinetic […] Langmuir fit; type: binding; conditions: pH 7.4, 25 C, 150 mM NaCl, 50 uM EDTA, 0.005% P-20; dimeric central pore, 1:1 stoichiometry
T1 construct: gene llmg_0323; full-length, synthetic codon-optimised gene in pET28b (NcoI/XhoI), C-terminal His6-tag kept, E. coli BL21(DE3), homodimer

[2] = molecular target: T1, LmrR; assay: SPR (Biacore […], LmrR on NTA chip), equilibrium one-site fit; type: binding; conditions: pH 7.4, 25 C, 150 mM NaCl, 50 uM EDTA, 0.005% P-20; dimeric central pore, 1:1 stoichiometry
[3] = molecular target: T2, LmrR (Lactococcus lactis, UniProt A2RI36 1-116); assay: NMR; 1H-13C HMQC titration, Ile d1 CSPs; low-field shift of Ile-62 d1 13C; SPR: 10 mM HEPES pH 7.4, 150 mM NaCl, 50 uM EDTA, 0.005% surfactant P-20, 25 C (described for compounds); NMR: 10 mM NaPi pH 6.8, 100 mM NaCl, 298 K
T2 sequence: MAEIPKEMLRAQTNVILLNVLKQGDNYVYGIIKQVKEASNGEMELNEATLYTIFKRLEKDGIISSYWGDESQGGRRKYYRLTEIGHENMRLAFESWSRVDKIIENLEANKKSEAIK

[4] = molecular target: T2, LmrR; assay: SPR; LmrR immobilised on NTA chip; 1:1 Langmuir global fit; text states only 'μM affinity', number in figure; SPR: 10 mM HEPES pH 7.4, 150 mM NaCl, 50 uM EDTA, 0.005% surfactant P-20, 25 C (described for compounds); NMR: 10 mM NaPi pH 6.8, 100 mM NaCl, 298 K

Molecule | KD [2] | other results
CCOc1ccc(-c2nc3ccc(-c4nc5ccc(N6CCN(C)CC6)cc5[nH]4)cc3[nH]2)cc1 [Hoechst 33342] |  | KD [1]: SPR analyses indicated that these compounds bind to LmrR with various affinities
COc1cccc2c1C(=O)c1c(O)c3c(c(O)c1C2=O)C[C@@](O)(C(C)=O)C[C@@H]3O[C@H]1C[C@H](N)[C@H](O)[C@H](C)O1 [daunomycin] | The KD values for H33342 and daunomycin were consistent with those previously reported | 
CC[n+]1c(-c2ccccc2)c2cc(N)ccc2c2ccc(N)cc21 [ethidium] | SPR analyses indicated that these compounds bind to LmrR with various affinities | 
CCN=c1cc2oc3cc(NCC)c(C)cc3c(-c3ccccc3C(=O)OCC)c-2cc1C [rhodamine 6G] | SPR analyses indicated that these compounds bind to LmrR with various affinities | 
lmrCD oligo (33-bp promoter fragment) (dsDNA) DNA 1: CAATTTAATGTAAAGTAGTTTACATTATTTAAC DNA 2: GTTAAATAATGTAAACTACTTTACATTAAATTG |  | binding result [3]: binds; binding result [4]: binds
